Source: a melting point compilation (Tetko et al.)

Conditions: a range is the spread between reports

melting point [°C]	Compound
173 to 176	CC(C(=O)O)(c1ccccc1)c1ccccc1
-96 to -95.5	CCc1cccc(C)c1
134	O=C(O)CCc1c[nH]c2ccccc12
-22 to -21.5	Clc1cccc(Br)c1
156 to 158	Cc1ccc(NC(=O)c2ccccc2)cc1
91 to 92	OCc1ccccc1I
138 to 139	O=C(O)c1ccsc1
130 to 131	O=C(O)c1c(F)ccc(F)c1F
77.5 to 79	CCCCCCCC/C=C\CCCCCCCCCCCC(N)=O
-162	CC1CCC1
73 to 77.5	O=C1C=CC(=O)C2C3C=CC(C3)C12 (stereo unspecified)
15 to 16	CC(C)c1ccccc1O
64 to 67	CC(=O)NN
82 to 84	N#CCc1ccccc1[N+](=O)[O-]
166 to 168	NNC(=O)c1ccc(Br)cc1
57 to 62	Oc1ccc2c(c1)CCCC2
14 to 15	NCCCN1CCN(CCCN)CC1
-104	C1=CCCCC1

Compound	melting point [°C]
Oc1ccc(Cl)cc1Cc1ccccc1	48 to 48.5
OCCN(CCO)CCO	19.5 to 20.5
Sc1nc2ccccc2[nH]1	298
